Structures can show the parent of a compound that is named as a salt. A value given as a limit tells only on which side of the number the result lay.

This is an account of results in patent US10577365B2, “Derivatives of quinoline as inhibitors of DYRK1A and/or DYRK1B kinases” (Felicitex Therapeutics, Inc., priority 2016, dated 2020).

In one experiment the target is T1, DYRK1A (Homo sapiens, UniProt Q13627).
T1 construct: purchased Carna Bioscence (Carna Biosciences) 04-130
Nature of the experiment: DYRK1A in vitro kinase assay (ADP-Glo). Format: biochemical. Particulars: ATP 70 μM (Km), substrate 3 μM, enzyme 2 nM or 0.7 nM, 30 min, rt. How it is done:
The compounds of the present invention were tested for their inhibitory activity against DYRK1A and DYRK1B kinases once or several times. When tested more than once, the data are reported herein as average value, wherein the average value, also referred to as the mean value, represents the sum of obtained values divided by the number of times tested.
DYRK-inhibitory activity of the compounds of the present invention was tested using the ADP-Glo™ assay as described in the following paragraphs. The procedure for determining the IC50 values with the ADP-Glo™ assay in in vitro kinase assays consists of two parts:
1. Kinase reaction performed under optimized conditions;
2. Detection of ADP as a product of the reaction using ADP-Glo™ system (Promega).
The tested compounds indicated in Table 5 below were dissolved in DMSO, then transferred to the V-bottom PP plate to perform nine serial dilutions (in order to obtain dose-response curves) in 25% DMSO, as indicated in Table 5 below.
The optimized conditions for performing DYRK1A in vitro kinase assay were as follows:
For compound testing, the following protocol was used: two mixes were prepared on ice, Mix 1 containing substrate, ATP and reaction buffer and Mix 2 containing reaction buffer and the kinase. 15 μL per well of Mix 1 was transferred to wells of a 96-well plate. Next, 2.5 μL of the pre-diluted compound to be tested was added to Mix 1, followed by the addition of 12.5 μL of Mix 2. Total reaction volume was 30 μL per well. The experiment was performed in duplicate for each data point being examined. Dose response curve for the positive control was carried out on each assay plate by adding the reference inhibitory compound staurosporine. For each test, three controls were also included: (i) 30 μL of the reaction mixture containing: reaction buffer, ATP, kinase, DMSO without substrate (quasi-positive control); (ii) 30 μL of the reaction mixture containing reaction buffer, substrate, ATP, DMSO without kinase (background control); (iii) 30 μL of the reaction mixture containing reaction buffer, substrate, kinase, ATP, DMSO (vehicle control). Final concentration of DMSO in the reaction was 2%. To detect the ADP amount produced during the kinase reaction, the commercially available kit ADP-Glo™ Kinase Assay (Promega, cat. No # V9103) was used. The protocol used for the detection was based on the Technical Bulletin of the ADP-Glo™ Kinase Assay (Promega) and was adapted to 96-well plate containing 30 μL reaction mixture as explained below.
30 μL of ADP-Glo™ Reagent was added to each well of a 96 well plate containing 30 μL of reaction mixture to terminate the kinase reaction and deplete the remaining ATP. The plate was incubated for 60 minutes on a shaker at rt. 60 μL of Kinase Detection Solution was then added to each well of 96-well plate containing 60 μL of the solution to convert ADP to ATP and to allow the newly synthesized ATP to be measured using a luciferase/luciferin reaction (ratio of kinase reaction volume to ADP Glo™ Reagent volume to Kinase Detection Solution volume was maintained at 1:1:2). The plate was incubated for 40 minutes on a shaker at rt, protected from light. Luminescence was measured in the plate reader, wherein the luminescent signal is proportional to the ADP concentration produced and thus correlates with kinase activity.
After data normalization to controls (complete reaction mix and no-substrate control) and transforming X values (test compound concentrations) using: X=log(X), IC50 values were determined, using the GraphPad Prism 6.0 [log(agonist) vs. normalized response—Variable slope].
(In general: In ADP-Glo the light output rises with the ADP produced.)

The next experiment addresses T2, DYRK1B (Homo sapiens, UniProt Q9Y463).
T2 construct: purchased Carna Bioscence (Carna Biosciences) 04-131
Nature of the experiment: DYRK1B in vitro kinase assay (ADP-Glo). It counts as biochemical. Conditions: ADP-Glo assay, ATP 15 μM (Km), substrate 7 μM, enzyme 1 nM or 0.3 nM, 1 h, rt; read-out: DYRK1B IC50. How it is done: The compounds of the present invention were tested for their inhibitory activity against DYRK1A and DYRK1B kinases once or several times. When tested more than once, the data are reported herein as average value, wherein the average value, also referred to as the mean value, represents the sum of obtained values divided by the number of times tested. DYRK-inhibitory activity of the compounds of the present invention was tested using the ADP-Glo™ assay as described in the following paragraphs. The procedure for determining the IC50 values with the ADP-Glo™ assay in in vitro kinase assays consists of two parts: […] Kinase reaction performed under optimized conditions; 2. Detection of ADP as a product of the reaction using ADP-Glo™ system (Promega). The tested compounds indicated in Table 5 below were dissolved in DMSO, then transferred to the V-bottom PP plate to perform nine serial dilutions (in order to obtain dose-response curves) in 25% DMSO, as indicated in Table 5 below. The optimized conditions for performing DYRK1B in vitro kinase assay were as follows: [table] For compound testing, the following protocol was used: two mixes were prepared on ice, Mix 1 containing substrate, ATP and reaction buffer and Mix 2 containing reaction buffer and the kinase. 15 μL per well of Mix 1 was transferred to wells of a 96-well plate. […] Total reaction volume was 30 μL per well. The experiment was performed in duplicate for each data point being examined. Dose response curve for the positive control was carried out on each assay plate by adding the reference inhibitory compound staurosporine. For each test, three controls were also included: (i) 30 μL of the reaction mixture containing: reaction buffer, ATP, kinase, DMSO without substrate (quasi-positive control); (ii) 30 μL of the reaction mixture containing reaction buffer, substrate, ATP, DMSO without kinase (background control); (iii) 30 μL of the reaction mixture containing reaction buffer, substrate, kinase, ATP, DMSO (vehicle control). Final concentration of DMSO in the reaction was 2%. To detect the ADP amount produced during the kinase reaction, the commercially available kit ADP-Glo™ Kinase Assay (Promega, cat. No # V9103) was used. The protocol used for the detection was based on the Technical Bulletin of the ADP-Glo™ Kinase Assay (Promega) and was adapted to 96-well plate containing 30 μL reaction mixture as explained below. 30 μL of ADP-Glo™ Reagent was added to each well of a 96 well plate containing 30 μL of reaction mixture to terminate the kinase reaction and deplete the remaining ATP. The plate was incubated for 60 minutes on a shaker at rt. 60 μL of Kinase Detection Solution was then added to each well of 96-well plate containing 60 μL of the solution to convert ADP to ATP and to allow the newly synthesized ATP to be measured using a luciferase/luciferin reaction (ratio of kinase reaction volume to ADP Glo™ Reagent volume to Kinase Detection Solution volume was maintained at 1:1:2). The plate was incubated for 40 minutes on a shaker at rt, protected from light. Luminescence was measured in the plate reader, wherein the luminescent signal is proportional to the ADP concentration produced and thus correlates with kinase activity. After data normalization to controls (complete reaction mix and no-substrate control) and transforming X values (test compound concentrations) using: X=log(X), IC50 values were determined, using the GraphPad Prism 6.0 [log(agonist) vs. normalized response—Variable slope].

T2 sequence (Q9Y463 whole entry): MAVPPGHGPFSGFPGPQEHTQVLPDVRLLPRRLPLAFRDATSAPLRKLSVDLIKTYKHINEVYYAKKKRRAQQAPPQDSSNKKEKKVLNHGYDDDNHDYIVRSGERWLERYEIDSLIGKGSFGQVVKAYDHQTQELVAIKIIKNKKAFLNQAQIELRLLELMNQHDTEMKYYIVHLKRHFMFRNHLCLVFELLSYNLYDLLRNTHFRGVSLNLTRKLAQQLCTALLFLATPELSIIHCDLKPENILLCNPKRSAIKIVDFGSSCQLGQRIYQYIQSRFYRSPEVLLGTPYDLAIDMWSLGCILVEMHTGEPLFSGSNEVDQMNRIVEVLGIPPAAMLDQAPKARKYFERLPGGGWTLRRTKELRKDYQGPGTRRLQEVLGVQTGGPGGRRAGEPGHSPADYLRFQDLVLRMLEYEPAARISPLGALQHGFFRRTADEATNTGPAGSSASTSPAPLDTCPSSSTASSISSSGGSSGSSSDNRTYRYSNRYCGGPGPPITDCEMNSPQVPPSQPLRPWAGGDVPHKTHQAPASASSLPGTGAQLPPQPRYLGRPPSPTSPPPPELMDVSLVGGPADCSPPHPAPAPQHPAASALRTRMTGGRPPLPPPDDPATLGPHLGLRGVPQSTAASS

For the compound `N[C@@H]1CCCN(c2ccnc3c(F)cc(-c4c[nH]c5ncc(C(=O)NCc6cccnc6)cc45)cc23)C1` [Example 48, 3-{4-[(3R)-3-Aminopiperidin-1-yl]-8-fluoroquinolin-6-yl}-N-(pyridin-3-ylmethyl)-1H-pyrrolo[2,3-b]pyridine-5-carboxamide hydrochloride], the IC50 against DYRK1A and at DYRK1B was below 10 nM in each case.
With `CNC(=O)c1cnc2[nH]cc(-c3ccc4ncc(NCc5cccc(Cl)c5)c(N5CCC[C@H](N)C5)c4c3)c2c1` [Example 55, 3-{4-[(3S)-3-Aminopiperidin-1-yl]-3-{[(3-chlorophenyl)methyl]amino}quinolin-6-yl}-N-methyl-1H-pyrrolo[2,3-b]pyridine-5-carboxamide hydrochloride], the 50% inhibitory concentration (IC50) (in general, the point on the concentration scale where inhibition reaches its midpoint) was 10 to 100 nM on DYRK1A and below 10 nM on DYRK1B.
In the case of `O=C(NCc1ccccc1)c1cnc2[nH]cc(-c3cc(Cl)c4ncccc4c3)c2c1` [Example 32, N-Benzyl-3-(8-chloroquinolin-6-yl)-1H-pyrrolo[2,3-b]pyridine-5-carboxamide], the IC50 is 10 to 100 nM against DYRK1A and below 10 nM on DYRK1B.
The matching figures for `Clc1cc(-c2c[nH]c3ncccc23)cc2cccnc12` [Example 11, 8-Chloro-6-{1H-pyrrolo[2,3-b]pyridin-3-yl}quinoline hydrochloride]: below 10 nM and below 10 nM.
The matching figures for `CNC(=O)c1cnc2[nH]cc(-c3cc(F)c4nccc(N5CCC[C@H](N)C5)c4c3)c2c1` [Example 43, 3-{4-[(3S)-3-Aminopiperidin-1-yl]-8-fluoroquinolin-6-yl}-N-methyl-1H-pyrrolo[2,3-b]pyridine-5-carboxamide hydrochloride]: below 10 nM and below 10 nM.
`CNC(=O)c1cnc2[nH]cc(-c3cc(F)c4nccc(-c5cccnc5)c4c3)c2c1` [Example 39, 3-[8-Fluoro-4-(pyridin-3-yl)quinolin-6-yl]-N-methyl-1H-pyrrolo[2,3-b]pyridine-5-carboxamide]: the IC50 at DYRK1A and at DYRK1B was below 10 nM each time.
With `C=CCN(C)C(=O)c1cnc2[nH]cc(-c3cc(F)c4ncccc4c3)c2c1` [Example 27, 3-(8-Fluoroquinolin-6-yl)-N-methyl-N-(prop-2-en-1-yl)-1H-pyrrolo[2,3-b]pyridine-5-carboxamide], the half-inhibitory concentration (IC50) against DYRK1A and at DYRK1B was below 10 nM in each case.
Regarding `N[C@H]1CCCN(c2ccnc3ccc(-c4c[nH]c5ncccc45)cc23)C1` [Example 3, (3S)-1-(6-{1H-Pyrrolo[2,3-b]pyridin-3-yl}quinolin-4-yl)piperidin-3-amine], the IC50 against DYRK1A and at DYRK1B was below 10 nM in each case.
`c1cncc(-c2ccnc3ccc(-c4c[nH]c5ncccc45)cc23)c1` [Example 6, 4-(Pyridin-3-yl)-6-{1H-pyrrolo[2,3-b]pyridin-3-yl}quinoline]: the IC50 against DYRK1A and at DYRK1B was below 10 nM in each case.
Regarding `N[C@H]1CC[C@H](Nc2c(NCC3CCOCC3)cnc3ccc(-c4c[nH]c5ncc(C(=O)NCc6cccnc6)cc45)cc23)CC1` [Example 60, 3-{4-[(4-Aminocyclohexyl)amino]-3-[(oxan-4-ylmethyl)amino]quinolin-6-yl}-N-(pyridin-3-ylmethyl)-1H-pyrrolo[2,3-b]pyridine-5-carboxamide hydrochloride], the IC50 at DYRK1A is 10 to 100 nM; on DYRK1B, below 10 nM.
The like results for `O=C(NCc1cccnc1)c1cnc2[nH]cc(-c3ccc4ncc(NCC5CCOCC5)cc4c3)c2c1` [Example 63, 3-{3-[(Oxan-4-ylmethyl)amino]quinolin-6-yl}-N-(pyridin-3-ylmethyl)-1H-pyrrolo[2,3-b]pyridine-5-carboxamide] were, in that order, below 10 nM and below 10 nM.
The matching figures for `Fc1cc(-c2c[nH]c3ncccc23)cc2c(-c3cccnc3)ccnc12` [Example 19, 8-Fluoro-4-(pyridin-3-yl)-6-{1H-pyrrolo[2,3-b]pyridin-3-yl}quinoline]: below 10 nM and below 10 nM.
The like results for `C=CCN(C)Cc1cnc2[nH]cc(-c3cc(F)c4nccc(-c5cccnc5)c4c3)c2c1` [Example 52, ({3-[8-Fluoro-4-(pyridin-3-yl)quinolin-6-yl]-1H-pyrrolo[2,3-b]pyridin-5-yl}methyl)(methyl)(prop-2-en-1-yl)amine] were, in that order, 10 to 100 nM and below 10 nM.
For the compound `CNC(=O)c1cnc2[nH]cc(-c3cc(F)c4ncccc4c3)c2c1` [Example 30, 3-(8-Fluoroquinolin-6-yl)-N-methyl-1H-pyrrolo[2,3-b]pyridine-5-carboxamide], the IC50 on DYRK1A and at DYRK1B was below 10 nM each time.
With `CC(=O)Nc1cnc2ccc(-c3c[nH]c4ncc(C(=O)NCc5cccnc5)cc34)cc2c1` [Example 62, 3-(3-Acetamidoquinolin-6-yl)-N-(pyridin-3-ylmethyl)-1H-pyrrolo[2,3-b]pyridine-5-carboxamide], the IC50 against DYRK1A and on DYRK1B was below 10 nM throughout.
For the compound `C=CCN(C)C(=O)c1cnc2[nH]cc(-c3cc(Cl)c4ncccc4c3)c2c1` [Example 28, 3-(8-Chloroquinolin-6-yl)-N-methyl-N-(prop-2-en-1-yl)-1H-pyrrolo[2,3-b]pyridine-5-carboxamide], the results for the 50% inhibitory concentration (IC50) against DYRK1A and on DYRK1B were 10 to 100 nM and below 10 nM, respectively.
The matching figures for `c1cnc2[nH]cc(-c3ccc4ncc(NCc5ccoc5)cc4c3)c2c1` [Example 16, N-(Furan-3-ylmethyl)-6-{1H-pyrrolo[2,3-b]pyridin-3-yl}quinolin-3-amine]: below 10 nM and below 10 nM.
